Experimental data: patent US20160039879A1, “NOVEL CYCLOSPORIN DERIVATIVES AND USES THEREOF” (S&T Global Inc., priority 2013, published 2016)

Legend:
[1] = Stability testing: epimerization of cyclosporin derivatives in methanol, monitored by HPLC; format: physicochemical; settings: Table 9, MeOH at 50° C.-58° C.
HIV-1IIIB = test: Anti-HIV cytoprotection assay, acute infection model in CEM-SS cells (MTS endpoint); format: cell-based; settings: HIV-1IIIB in CEM-SS cells, 6-day incubation, read-out: Antiviral activity EC50
Method: Anti-HIV activity of cyclosporine derivatives were evaluated by cytoprotection assay in an acute infection model using CEM-SS cells and either HIV-1IIIB or HIV-1 RF. Antiviral activity was determined as a reduction in virus-caused cytopathic effects when compounds prevent virus replication. Cytoprotection and compound cytotoxicity were evaluated using the tetrazollium dye MTS (Promega) to calculate cell viability following virus infection after 6-day incubation (Zhou G., et al., 2011, J. Med. Chem. 27, 7220-31; which is incorporated herein by reference).

[2] = test system: HCV replicon in cell line ET (luc-ubi-neo/ET), Huh7 human hepatoma cell line; test: HCV subgenomic replicon assay (luciferase end point); format: cell-based; settings: Hepatitis C virus, Huh-7, Table 15, HCV replicon, read-out: Antiviral activity EC50

| SMILES | Epimerization % after 168 hours [1] | also measured |
| --- | --- | --- |
| CC=CCC(C)C(O)C1C(=O)NC(CC)C(=O)N(C)C(CSCCC(CO)CCC)C(=O)N(C)C(CC(C)(C)O)C(=O)NC(C(C)C)C(=O)N(C)C(CC(C)C)C(=O)NC(C)C(=O)NC(C)C(=O)N(C)C(CC(C)C)C(=O)N(C)C(CC(C)C)C(=O)N(C)C(C(C)C)C(=O)N1C [Example 105, [(S)-((3-(R)-(Hydroxymethyl)hexyl)thio)methyl-Sar]-3-[(γ-hydroxy)-N-MeLeu]-4-cyclosporin] | 0% |  |
| C/C=C/C[C@@H](C)[C@@H](O)[C@H]1C(=O)N[C@@H](CC)C(=O)N(C)[C@H](CSCCN(C)C)C(=O)N(C)[C@@H](CC(C)(C)O)C(=O)N[C@@H](C(C)C)C(=O)N(C)[C@@H](CC(C)C)C(=O)N[C@@H](C)C(=O)N[C@H](C)C(=O)N(C)[C@@H](CC(C)C)C(=O)N(C)[C@@H](CC(C)C)C(=O)N(C)[C@@H](C(C)C)C(=O)N1C (single isomer, unassigned; isomer b) |  | EC50 (HIV-1IIIB): 118 nM |
| C/C=C/C[C@@H](C)[C@@H](O)[C@H]1C(=O)N[C@@H](CC)C(=O)N(C)[C@H](CSCCN(CC)CC)C(=O)N(C)[C@@H](CC(C)(C)O)C(=O)N[C@@H](C(C)C)C(=O)N(C)[C@@H](CC(C)C)C(=O)N[C@@H](C)C(=O)N[C@H](C)C(=O)N(C)[C@@H](CC(C)C)C(=O)N(C)[C@@H](CC(C)C)C(=O)N(C)[C@@H](C(C)C)C(=O)N1C (single isomer, unassigned) [Example 32, isomer B] | 0% |  |
| C/C=C/C[C@@H](C)[C@@H](O)[C@H]1C(=O)N[C@@H](CC)C(=O)N(C)[C@H](CSCCN(C)C)C(=O)N(C)[C@@H](CC(C)(C)O)C(=O)N[C@@H](C(C)C)C(=O)N(C)[C@@H](CC(C)C)C(=O)N[C@@H](C)C(=O)N[C@H](C)C(=O)N(C)[C@@H](CC(C)C)C(=O)N(C)[C@@H](CC(C)C)C(=O)N(C)[C@@H](C(C)C)C(=O)N1C (single isomer, unassigned) [Example 31, isomer B] | 0% |  |
| C/C=C/C[C@@H](C)[C@@H](O)[C@H]1C(=O)N[C@@H](CC)C(=O)N(C)[C@H](CSCCCCC(CO)CO)C(=O)N(C)[C@@H](CC(C)(C)O)C(=O)N[C@@H](C(C)C)C(=O)N(C)[C@@H](CC(C)C)C(=O)N[C@@H](C)C(=O)N[C@H](C)C(=O)N(C)[C@@H](CC(C)C)C(=O)N(C)[C@@H](CC(C)C)C(=O)N(C)[C@@H](C(C)C)C(=O)N1C |  | EC50 [2]: 70 nM |
